Measurements as given in patent publication US7935722B2 (Eli Lilly and Company, priority 2005, dated 2011).
Like-named read-outs stand apart in the source and are kept apart here.

Tests used:
[1] = target: T1, human androgen receptor (AR) (Homo sapiens, UniProt P10275); experiment: C2C12 AR/ARE reporter assay; format: cell-based
T1 construct: expressed in transfected cells; host or cells: mouse myoblast C2C12 cells, transiently co-transfected
T1 sequence (P10275 1-920): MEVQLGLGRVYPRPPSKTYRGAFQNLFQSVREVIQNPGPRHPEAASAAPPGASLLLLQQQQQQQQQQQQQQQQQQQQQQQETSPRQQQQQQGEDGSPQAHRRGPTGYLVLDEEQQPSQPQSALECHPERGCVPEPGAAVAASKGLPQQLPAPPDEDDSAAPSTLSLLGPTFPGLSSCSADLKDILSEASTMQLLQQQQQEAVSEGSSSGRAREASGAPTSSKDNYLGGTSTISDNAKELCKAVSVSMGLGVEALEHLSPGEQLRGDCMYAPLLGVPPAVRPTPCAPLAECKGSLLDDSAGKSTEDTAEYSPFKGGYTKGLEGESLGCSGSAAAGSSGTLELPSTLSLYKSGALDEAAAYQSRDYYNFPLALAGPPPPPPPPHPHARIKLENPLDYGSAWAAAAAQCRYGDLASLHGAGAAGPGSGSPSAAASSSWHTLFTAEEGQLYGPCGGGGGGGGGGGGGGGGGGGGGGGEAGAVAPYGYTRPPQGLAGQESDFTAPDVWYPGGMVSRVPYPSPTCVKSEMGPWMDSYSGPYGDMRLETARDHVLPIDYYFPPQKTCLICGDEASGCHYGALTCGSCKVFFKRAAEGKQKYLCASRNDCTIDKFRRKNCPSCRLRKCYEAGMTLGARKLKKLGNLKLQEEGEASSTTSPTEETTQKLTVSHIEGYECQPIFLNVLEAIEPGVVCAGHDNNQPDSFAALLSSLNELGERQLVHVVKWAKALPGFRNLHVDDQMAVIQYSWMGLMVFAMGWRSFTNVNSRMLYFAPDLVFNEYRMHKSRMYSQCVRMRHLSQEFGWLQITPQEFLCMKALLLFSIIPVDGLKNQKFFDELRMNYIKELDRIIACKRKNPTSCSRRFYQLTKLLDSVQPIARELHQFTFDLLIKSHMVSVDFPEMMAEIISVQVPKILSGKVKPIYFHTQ
Method in brief: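 Mouse C2C12 myoblasts co-transfected with AR/ARE reporter were plated in charcoal-stripped serum and treated for 48 h with compound from about 0.01 nM to 10 μM. Luciferase activity gave EC50 by 4-parameter logistic fit. Efficacy is expressed as % of maximal stimulation by 10 nM methyltrienolone.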

[2] = target: T2, human AR (androgen receptor) (Homo sapiens, UniProt P10275); experiment: Steroid hormone nuclear receptor binding assay, AR binding
T2 construct: expressed in transfected cells; host or cells: 293 cells (293-AR lysate)
T2 sequence (P10275 1-920): T1 sequence (P10275 1-920)
Method in brief: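 Competition binding with lysates of 293 cells overexpressing human AR, [3H]-methyltrienolone tracer, compounds from about 0.01 nM to 10 μM, overnight at 4 °C; non-specific binding set with 500 nM methyltrienolone. Bound tracer counted by scintillation after charcoal-dextran separation; IC50 converted to Ki by Cheng-Prusoff using Kd from saturation binding.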

[3] = C2C12, read-out: C2C12 % Efficacy
[4] = C2C12 AR/ARE reporter assay, average of n trials, read-out: C2C12 % Efficacy
[5] = C2C12 AR/ARE reporter assay, average of n trials, read-out: C2C12 EC50
[6] = average of n trials, read-out: AR binding Ki

Row | Structure (SMILES) | EC50 [1] [nM] | Emax [1, 3] [%] | Ki [2] [nM] | Emax [1, 4] [%] | EC50 [1, 5] [nM] | Ki [2, 6] [nM]
1 | CC(C)C(=O)NC1CCc2c(c3cc(C#N)ccc3n2Cc2cnc(Cl)s2)C1 (stereo not drawn) [Example 155, N-[9-(2-Chloro-thiazol-5-ylmethyl)-6-cyano-2,3,4,9-tetrahydro-1H-carbazol-3-yl]-isobutyramide] | 102 | 54.8 | 13.5 | – | – | –
2 | Cc1csc(Cn2c3c(c4cc(C#N)ccc42)C[C@H](NC(=O)C(C)C)CC3)n1 [Example 156, (R)-N-[6-Cyano-9-(4-methyl-thiazol-2-ylmethyl)-2,3,4,9-tetrahydro-1H-carbazol-3-yl]-isobutyramide] | 30.5 | 79.4 | 10.8 | – | – | –
3 | CC(C)C(=O)NC1CCc2c(c3cc(C#N)ccc3n2Cc2ccsc2)C1 (stereo not drawn) [Example 157, N-(6-Cyano-9-thiophen-3-ylmethyl-2,3,4,9-tetrahydro-1H-carbazol-3-yl)-isobutyramide] | – | – | – | 72.3 | 3 | 5.2
4 | CC(C)C(=O)NC1CCc2c(c3cc(C#N)ccc3n2Cc2cccs2)C1 (stereo not drawn) [Example 158, N-(6-Cyano-9-thiophen-2-ylmethyl-2,3,4,9-tetrahydro-1H-carbazol-3-yl)-isobutyramide] | 4.5 | 124 | 3.1 | – | – | –
5 | CC(C)C(=O)NC1CCc2c(c3cc(C#N)ccc3n2Cc2cncs2)C1 (stereo not drawn) [Example 159, N-(6-Cyano-9-thiazol-5-ylmethyl-2,3,4,9-tetrahydro-1H-carbazol-3-yl)-isobutyramide] | 35.8 | 80.9 | 34.4 | – | – | –
6 | CC(C)C(=O)N[C@@H]1CCc2c(c3cc(C#N)ccc3n2Cc2cnccn2)C1 [Example 160, (R)-N-(6-Cyano-9-pyrazin-2-ylmethyl-2,3,4,9-tetrahydro-1H-carbazol-3-yl)-isobutyramide] | 6.3 | 89.5 | 19.8 | – | – | –
7 | CC(C)C(=O)N[C@@H]1CCc2c(c3cc(C#N)ccc3n2Cc2ccccn2)C1 [Example 161, (R)-N-(6-cyano-9-pyridin-2-ylmethyl-2,3,4,9-tetrahydro-1H-carbazol-3-yl)-isobutyramide] | 3.1 | 95.7 | 6.8 | – | – | –
8 | CC(C)C(=O)NC1CCc2c(c3cc(OC(F)(F)F)ccc3n2Cc2cccc(F)n2)C1 (stereo not drawn) [Example 162, N-[9-(6-Fluoro-pyridin-2-ylmethyl)-6-trifluoromethoxy-2,3,4,9-tetrahydro-1H-carbazol-3-yl]-isobutyramide] | 9.2 | 81.7 | 8.6 | – | – | –
9 | O=C(NC1CCc2c(c3cc(OC(F)(F)F)ccc3n2Cc2cccc(F)n2)C1)C1CC1 (stereo not drawn) [Example 163] | – | – | – | 75.2 | 37.3 | 12.7
10 | COC(=O)NC1CCc2c(c3cc(OC(F)(F)F)ccc3n2Cc2cccc(F)n2)C1 (stereo not drawn) [Example 164] | – | – | – | 41.8 | 1230 | 42.3
11 | CN(C)C(=O)NC1CCc2c(c3cc(OC(F)(F)F)ccc3n2Cc2cccc(F)n2)C1 (stereo not drawn) [Example 165] | 15.3 | 74.6 | 14.2 | – | – | –
12 | CC(C)C(=O)NC1CCc2c(c3cc(OC(F)(F)F)ccc3n2Cc2cccc(F)c2)C1 (stereo not drawn) [Example 166] | 6.2 | 81.1 | 5.3 | – | – | –
13 | O=C(NC1CCc2c(c3cc(OC(F)(F)F)ccc3n2Cc2cccc(F)c2)C1)C1CC1 (stereo not drawn) [Example 167] | 13.7 | 82.4 | 7.8 | – | – | –
14 | COC(=O)NC1CCc2c(c3cc(OC(F)(F)F)ccc3n2Cc2cccc(F)c2)C1 (stereo not drawn) [Example 168] | – | – | – | 56.7 | 280 | 37
15 | CN(C)C(=O)NC1CCc2c(c3cc(OC(F)(F)F)ccc3n2Cc2cccc(F)c2)C1 (stereo not drawn) [Example 169] | – | – | – | 76.8 | 6.5 | 8.3
16 | O=C(NC1CCc2c(c3cc(Br)ccc3n2Cc2cccc(F)c2)C1)C1CC1 (stereo not drawn) [Example 170, Cyclopropanecarboxylic acid [6-bromo-9-(3-fluoro-benzyl)-2,3,4,9-tetrahydro-1H-carbazol-3-yl]-amide] | 22.4 | 67.2 | 5.9 | – | – | –
17 | CC[C@@H](C)C(=O)NC1CCc2c(c3cc(Br)ccc3n2Cc2cccc(F)c2)C1 (stereo partly drawn) [Example 171] | – | – | – | 63.5 | 411 | 8.2
18 | O=C(NC1CCc2c(c3cc(Br)ccc3n2Cc2cccc(F)c2)C1)C(F)(F)F (stereo not drawn) [Example 174] | – | – | – | 65.2 | 88 | 7.1
19 | CCC(=O)NC1CCc2c(c3cc(Br)ccc3n2Cc2cccc(F)c2)C1 (stereo not drawn) [Example 175] | 11.2 | 80.2 | 3.2 | – | – | –
20 | CN(C)C(=O)NC1CCc2c(c3cc(Br)ccc3n2Cc2cccc(F)c2)C1 (stereo not drawn) [Example 176, 3-[6-Bromo-9-(3-fluoro-benzyl)-2,3,4,9-tetrahydro-1H-carbazol-3-yl]-1,1-dimethyl-urea] | 46 | 61.5 | 7.8 | – | – | –
21 | N#Cc1ccc2c(c1)c1c(n2Cc2cccc(F)c2)CCC(NS(=O)(=O)C2CC2)C1 (stereo not drawn) [Example 177, Cyclopropanesulfonic acid[6-cyano-9-(3-fluoro-benzyl)-2,3,4,9-tetrahydro-1H-carbazol-3-yl)-amide] | 102 | 75.2 | 3.8 | – | – | –
22 | CN(C)C(=O)NC1CCc2c(c3cc(C#N)ccc3n2Cc2cccc(F)c2)C1 (stereo not drawn) [Example 178, 3-[6-Cyano-9-(3-fluorobenzyl)-2,3,4,9-tetrahydro-1H-carbazol-3-yl]-1,1-dimethylurea] | – | – | – | 81.8 | 11.5 | 5.9
23 | CNC(=O)NC1CCc2c(c3cc(C#N)ccc3n2Cc2cccc(F)c2)C1 (stereo not drawn) [Example 179, 1-[6-Cyano-9-(3-fluorobenzyl)-2,3,4,9-tetrahydro-1H-carbazol-3-yl]-3-methyl-urea] | – | – | – | 114 | 24.1 | 14.6
24 | CON(C)C(=O)NC1CCc2c(c3cc(C#N)ccc3n2Cc2cccc(F)c2)C1 (stereo not drawn) [Example 180, 3-[6-Cyano-9-(3-fluorobenzyl)-2,3,4,9-tetrahydro-1H-carbazol-3-yl]-1-methoxy-1-methyl-urea] | 2.2 | 97 | 4.6 | – | – | –
25 | CC(C)C(=O)N[C@@H]1CCc2c(c3cc(C#N)ccc3n2Cc2cccc(F)n2)C1 [Example 183, (R)-N-[6-Cyano-9-(6-fluoro-pyridin-2-ylmethyl)-2,3,4,9-tetrahydro-1H-carbazol-3-yl]-isobutyramide] | – | – | – | 95.3 | 0.7 | 4.3
26 | COC(=O)NC1CCc2c(c3cc(C#N)ccc3n2Cc2cccc(F)c2)C1 (stereo not drawn) [Example 184, [6-Cyano-9-(3-fluoro-benzyl)-2,3,4,9-tetrahydro-1H-carbazol-3-yl]-carbamic acid methyl ester] | 27.3 | 78.9 | 2.8 | – | – | –
27 | COC(=O)N[C@@H]1CCc2c(c3cc(C#N)ccc3n2Cc2ccccn2)C1 [Example 185, (6(R)-Cyano-9-pyridin-2-ylmethyl-2,3,4,9-tetrahydro-1H-carbazol-3-yl)-carbamic acid methyl ester] | – | – | – | 77.5 | 76 | 23.3
28 | COC(=O)N[C@@H]1CCc2c(c3cc(C#N)ccc3n2Cc2cccc(F)n2)C1 [Example 186, (R)-[6-Cyano-9-(6-fluoro-pyridin-2-ylmethyl)-2,3,4,9-tetrahydro-1H-carbazol-3-yl]-carbamic acid methyl ester] | 17.4 | 103 | 7.1 | – | – | –
29 | COC(=O)c1ccc2c(c1)c1c(n2Cc2cccc(F)c2)CC[C@@H](NC(=O)C(C)C)C1 [Example 187, (R)-9-(3-fluorobenzyl)-6-isobutyrylamino-6,7,8,9-tetrahydro-5H-carbazole-3-carboxylic acid methyl ester] | 2.4 | 77.8 | 2.3 | – | – | –
30 | CC(C)C(=O)N[C@@H]1CCc2c(c3cc(C(=O)O)ccc3n2Cc2cccc(F)c2)C1 [Example 188] | – | – | – | 82.4 | 794 | 952
